Columns and labels:
[1] = target: Sodium-dependent noradrenaline transporter (Homo sapiens, UniProt P23975); assay: DRUGMATRIX: Norepinephrine Transporter radioligand binding (ligand: [125I] RTI-55); assay type: cell membranes, MDCK, Membrane; conditions: Not Active = under 50% inhibition at 10 µM; for Ki: read-out: Ki
[2] = DRUGMATRIX: Glutamate, NMDA, Phencyclidine radioligand binding (ligand: [3H] TCP); assay type: cell membranes, Rattus norvegicus, Wistar, Cerebral cortex, Membrane; conditions: Not Active = under 50% inhibition at 10 µM
[3] = DRUGMATRIX: Glutamate, AMPA radioligand binding (ligand: [3H] AMPA); assay type: cell membranes, Rattus norvegicus, Wistar, Cerebral cortex, Membrane; conditions: Not Active = under 50% inhibition at 10 µM
[4] = target: T1, Neutrophil elastase (Homo sapiens, UniProt P08246); assay type: tissue-based;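 note: inhibition of neutrophil elastase enzyme activity, measured with a p-nitroanilide-linked peptide substrate; in other assays of this panel Not Active means under 50% inhibition at 10 µM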
T1 sequence (P08246 whole entry): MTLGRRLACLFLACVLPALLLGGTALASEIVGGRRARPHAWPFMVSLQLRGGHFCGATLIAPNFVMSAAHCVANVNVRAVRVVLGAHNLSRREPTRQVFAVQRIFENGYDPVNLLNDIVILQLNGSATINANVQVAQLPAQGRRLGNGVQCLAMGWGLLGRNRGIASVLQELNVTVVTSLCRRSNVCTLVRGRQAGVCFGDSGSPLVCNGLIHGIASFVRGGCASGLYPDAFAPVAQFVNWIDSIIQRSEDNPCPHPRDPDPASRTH

[5] = target: T2, Angiotensin-converting enzyme (Oryctolagus cuniculus, UniProt P12822); assay type: tissue-based, Lung;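 note: enzymatic inhibition of angiotensin-converting enzyme measured with FAPGG as the substrate; in other assays of this panel Not Active means under 50% inhibition at 10 µM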
T2 sequence (P12822 whole entry): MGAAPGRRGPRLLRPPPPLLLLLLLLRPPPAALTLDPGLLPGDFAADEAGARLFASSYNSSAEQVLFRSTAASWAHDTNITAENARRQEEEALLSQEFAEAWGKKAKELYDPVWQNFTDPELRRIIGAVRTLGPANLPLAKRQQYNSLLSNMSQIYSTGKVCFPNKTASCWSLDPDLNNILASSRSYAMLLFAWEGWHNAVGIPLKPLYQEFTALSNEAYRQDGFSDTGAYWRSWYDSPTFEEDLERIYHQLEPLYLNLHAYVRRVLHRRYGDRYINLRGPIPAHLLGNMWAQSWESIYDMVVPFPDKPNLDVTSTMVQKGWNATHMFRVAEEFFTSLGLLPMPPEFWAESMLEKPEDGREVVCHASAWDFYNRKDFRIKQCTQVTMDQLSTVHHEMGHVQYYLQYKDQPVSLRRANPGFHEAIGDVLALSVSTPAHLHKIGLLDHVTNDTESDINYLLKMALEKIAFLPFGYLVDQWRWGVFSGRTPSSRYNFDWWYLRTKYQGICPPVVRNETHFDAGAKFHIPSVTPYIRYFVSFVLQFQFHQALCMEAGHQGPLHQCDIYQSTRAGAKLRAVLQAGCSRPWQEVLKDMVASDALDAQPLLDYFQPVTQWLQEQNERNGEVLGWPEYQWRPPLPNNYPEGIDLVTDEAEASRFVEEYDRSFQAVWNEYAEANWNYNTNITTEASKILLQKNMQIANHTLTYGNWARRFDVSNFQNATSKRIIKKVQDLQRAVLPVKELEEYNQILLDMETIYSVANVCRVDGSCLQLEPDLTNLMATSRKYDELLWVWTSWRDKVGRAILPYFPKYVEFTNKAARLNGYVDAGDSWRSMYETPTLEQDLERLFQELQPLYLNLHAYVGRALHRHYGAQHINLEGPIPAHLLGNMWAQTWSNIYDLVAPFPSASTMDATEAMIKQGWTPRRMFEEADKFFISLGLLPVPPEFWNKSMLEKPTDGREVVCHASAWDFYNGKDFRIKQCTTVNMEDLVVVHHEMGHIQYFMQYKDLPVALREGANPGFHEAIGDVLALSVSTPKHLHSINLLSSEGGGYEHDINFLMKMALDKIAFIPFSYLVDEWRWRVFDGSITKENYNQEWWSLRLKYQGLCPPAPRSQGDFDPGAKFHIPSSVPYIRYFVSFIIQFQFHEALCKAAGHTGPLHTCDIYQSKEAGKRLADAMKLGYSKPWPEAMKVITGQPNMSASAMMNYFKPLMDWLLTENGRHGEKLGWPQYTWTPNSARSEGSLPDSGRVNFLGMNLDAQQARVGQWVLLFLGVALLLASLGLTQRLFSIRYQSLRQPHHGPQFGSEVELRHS

[6] = target: Beta-3 adrenergic receptor (Homo sapiens, UniProt P13945); assay: DRUGMATRIX: Adrenergic beta3 radioligand binding (ligand: [125I] Cyanopindolol); assay type: cell membranes, HEK293, Membrane; conditions: hek293; Not Active = under 50% inhibition at 10 µM
[7] = DRUGMATRIX: Atrial Natriuretic Factor (ANF) radioligand binding (ligand: [125I] ANF (rat)); assay type: cell membranes, Cavia porcellus, Dunkin-Hartley, Adrenal gland, Membrane; conditions: Not Active = under 50% inhibition at 10 µM

Chain of Beta-3 adrenergic receptor (P13945 whole entry): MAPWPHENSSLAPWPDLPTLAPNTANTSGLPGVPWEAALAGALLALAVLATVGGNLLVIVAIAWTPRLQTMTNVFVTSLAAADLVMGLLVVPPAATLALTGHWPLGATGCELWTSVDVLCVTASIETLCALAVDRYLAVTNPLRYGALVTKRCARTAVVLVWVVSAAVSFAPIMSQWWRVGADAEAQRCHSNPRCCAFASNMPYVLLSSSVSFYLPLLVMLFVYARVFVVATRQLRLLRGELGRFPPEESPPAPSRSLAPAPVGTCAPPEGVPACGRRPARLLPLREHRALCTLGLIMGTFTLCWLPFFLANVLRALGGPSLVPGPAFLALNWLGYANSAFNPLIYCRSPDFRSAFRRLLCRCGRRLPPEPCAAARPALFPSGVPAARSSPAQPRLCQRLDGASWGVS
Chain of Sodium-dependent noradrenaline transporter (P23975 whole entry): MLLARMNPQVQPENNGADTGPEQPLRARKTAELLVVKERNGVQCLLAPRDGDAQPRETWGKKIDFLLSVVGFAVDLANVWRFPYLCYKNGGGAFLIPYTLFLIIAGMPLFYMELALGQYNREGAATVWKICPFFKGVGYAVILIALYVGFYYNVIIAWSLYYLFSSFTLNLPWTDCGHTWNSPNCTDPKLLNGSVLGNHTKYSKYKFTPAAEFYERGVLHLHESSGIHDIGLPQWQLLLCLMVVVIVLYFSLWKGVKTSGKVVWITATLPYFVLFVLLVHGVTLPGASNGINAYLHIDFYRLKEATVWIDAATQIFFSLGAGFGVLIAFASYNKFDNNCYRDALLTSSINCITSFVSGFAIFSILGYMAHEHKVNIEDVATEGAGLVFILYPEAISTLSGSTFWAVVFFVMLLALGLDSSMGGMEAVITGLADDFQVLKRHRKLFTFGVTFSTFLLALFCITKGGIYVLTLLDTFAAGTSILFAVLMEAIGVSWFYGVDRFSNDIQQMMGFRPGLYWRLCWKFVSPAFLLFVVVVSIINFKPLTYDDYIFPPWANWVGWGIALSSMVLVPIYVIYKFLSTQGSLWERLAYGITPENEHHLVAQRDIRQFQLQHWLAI

SMILES	IC50 ([1]; mdck)	IC50 [2]	Ki [2]	IC50 [3]	Ki [3]	IC50 [4]	IC50 [5]	IC50 [6]	IC50 [7]	Ki [7]	IC50 ([1]; read-out: IC50)	Ki [1]
COCCc1ccc(OCC(O)CNC(C)C)cc1 (centres undefined) [METOPROLOL]	Not Active	Not Active	Not Active	Not Active	Not Active	Not Active	Not Active	Not Active	Not Active	Not Active	–	–
COc1cc2nc(N3CCN(C(=O)C4COc5ccccc5O4)CC3)nc(N)c2cc1OC (centres undefined) [DOXAZOSIN]	Not Active	Not Active	Not Active	Not Active	Not Active	Not Active	Not Active	Not Active	Not Active	Not Active	–	–
NCCCCCC(=O)O [AMINOCAPROIC ACID]	Not Active	Not Active	Not Active	Not Active	Not Active	Not Active	Not Active	Not Active	Not Active	Not Active	–	–
CC(C)(C)NCC(O)c1cc(Cl)c(N)c(Cl)c1 (centres undefined) [CLENBUTEROL]	Not Active	Not Active	Not Active	Not Active	Not Active	Not Active	Not Active	Not Active	Not Active	Not Active	–	–
CCCN1C[C@H](CSC)C[C@@H]2c3cccc4[nH]cc(c34)C[C@H]21 [PERGOLIDE]	Not Active	Not Active	Not Active	Not Active	Not Active	Not Active	Not Active	Not Active	Not Active	Not Active	–	–
CN(C)C(=O)Oc1cc(OC(=O)N(C)C)cc(C(O)CNC(C)(C)C)c1 (centres undefined) [BAMBUTEROL]	Not Active	Not Active	Not Active	Not Active	Not Active	Not Active	Not Active	Not Active	Not Active	Not Active	–	–
c1ccc(Nc2ccc(Nc3ccccc3)cc2)cc1	–	Not Active	Not Active	Not Active	Not Active	Not Active	Not Active	Not Active	Not Active	Not Active	0.786 µM	0.78 µM
Cc1cc(C(C#N)c2ccc(Cl)cc2)c(Cl)cc1NC(=O)c1cc(I)cc(I)c1O (centres undefined) [CLOSANTEL]	Not Active	Not Active	Not Active	Not Active	Not Active	Not Active	Not Active	Not Active	Not Active	Not Active	–	–
Cc1ccc2cc3c(ccc4ccccc43)c3c2c1CC3 [3-METHYLCHOLANTHRENE]	–	Not Active	Not Active	Not Active	Not Active	Not Active	Not Active	Not Active	Not Active	Not Active	29.7 µM	29.4 µM
Nc1nc2c(ncn2CCC(CO)CO)c(=O)[nH]1 [PENCICLOVIR]	Not Active	Not Active	Not Active	Not Active	Not Active	Not Active	Not Active	Not Active	Not Active	Not Active	–	–
CN(C)CCCN1c2ccccc2Sc2ccc(Cl)cc21 [CHLORPROMAZINE]	–	Not Active	Not Active	Not Active	Not Active	Not Active	Not Active	Not Active	Not Active	Not Active	–	–
CNCCCN1c2ccccc2CCc2ccccc21 [DESIPRAMINE]	–	Not Active	Not Active	Not Active	Not Active	Not Active	Not Active	Not Active	Not Active	Not Active	–	–
C[C@H](CS)C(=O)N1CCC[C@H]1C(=O)O [CAPTOPRIL]	Not Active	Not Active	Not Active	Not Active	Not Active	Not Active	–	Not Active	Not Active	Not Active	–	–

— ChEMBL document CHEMBL1909046, “DrugMatrix in vitro pharmacology data”
